# Results: ChEMBL document CHEMBL1201862, “PubChem BioAssay data set” (2004)
# Calls of active or inactive are those of the source.
# Assays:
# [1] = molecular target: Glyceraldehyde-3-phosphate dehydrogenase (Homo sapiens, UniProt P04406)
# [2] = molecular target: Luciferin 4-monooxygenase (Photinus pyralis, UniProt P08659); experiment: inhibition of purified Photinus pyralis luciferase – biochemical, luminescence, dose response (AID 1891)
# [3] = Luminescence Cell-Based Dose Confirmation HTS to Identify Inhibitors of Platelet Dense Granule Release. [Related pubchem assays: 1663 (Primary HTS), 1678 (Summary of Project)]; type: functional
# [4] = molecular target: Large T antigen (Simian virus 40, UniProt P03070); type: functional, Betapolyomavirus macacae;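 further: Confirmatory-stage PubChem screen for compounds that inhibit SV40 T antigen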
# Sequence of Large T antigen (P03070 whole entry): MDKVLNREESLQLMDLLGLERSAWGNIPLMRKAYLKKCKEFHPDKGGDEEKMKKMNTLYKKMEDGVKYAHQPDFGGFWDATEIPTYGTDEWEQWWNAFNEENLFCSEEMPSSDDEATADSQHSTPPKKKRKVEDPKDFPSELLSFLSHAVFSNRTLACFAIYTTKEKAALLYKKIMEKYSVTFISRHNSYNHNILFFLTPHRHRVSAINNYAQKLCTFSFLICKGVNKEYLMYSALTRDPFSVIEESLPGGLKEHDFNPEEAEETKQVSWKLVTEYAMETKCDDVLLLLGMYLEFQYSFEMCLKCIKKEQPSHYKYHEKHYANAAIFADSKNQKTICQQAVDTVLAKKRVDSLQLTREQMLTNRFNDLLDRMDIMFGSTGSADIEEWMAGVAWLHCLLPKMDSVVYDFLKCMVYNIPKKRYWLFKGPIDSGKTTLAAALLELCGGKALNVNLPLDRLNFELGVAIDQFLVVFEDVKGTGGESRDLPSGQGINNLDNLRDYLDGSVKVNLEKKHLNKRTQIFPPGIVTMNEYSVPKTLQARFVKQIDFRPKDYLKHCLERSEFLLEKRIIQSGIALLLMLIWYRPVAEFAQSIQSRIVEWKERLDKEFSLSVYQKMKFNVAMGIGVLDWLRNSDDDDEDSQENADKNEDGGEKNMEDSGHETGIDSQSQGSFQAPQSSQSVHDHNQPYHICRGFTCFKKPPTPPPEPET
# [5] = molecular target: Cytochrome P450 2C9 (Homo sapiens, UniProt P11712)
# Sequence of Cytochrome P450 2C9 (P11712 whole entry): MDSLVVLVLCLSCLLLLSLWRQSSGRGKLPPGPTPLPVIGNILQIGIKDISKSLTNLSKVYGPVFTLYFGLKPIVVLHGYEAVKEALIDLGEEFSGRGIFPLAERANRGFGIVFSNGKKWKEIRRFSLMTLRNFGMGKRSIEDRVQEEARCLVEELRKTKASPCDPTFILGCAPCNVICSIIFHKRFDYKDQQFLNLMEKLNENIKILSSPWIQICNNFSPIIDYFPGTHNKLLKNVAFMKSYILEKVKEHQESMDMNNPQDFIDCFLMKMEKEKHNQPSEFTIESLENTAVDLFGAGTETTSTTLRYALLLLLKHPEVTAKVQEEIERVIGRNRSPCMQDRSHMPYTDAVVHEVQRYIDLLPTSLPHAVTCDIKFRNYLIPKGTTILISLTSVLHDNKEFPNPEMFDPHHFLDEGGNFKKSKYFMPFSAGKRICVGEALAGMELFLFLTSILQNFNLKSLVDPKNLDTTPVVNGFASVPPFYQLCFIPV
# [6] = molecular target: T1, Cytochrome P450 1A2 (Homo sapiens, UniProt P05177);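 further: PubChem cytochrome P450 panel assay, CYP1A2 panel member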
# T1 sequence (P05177 whole entry): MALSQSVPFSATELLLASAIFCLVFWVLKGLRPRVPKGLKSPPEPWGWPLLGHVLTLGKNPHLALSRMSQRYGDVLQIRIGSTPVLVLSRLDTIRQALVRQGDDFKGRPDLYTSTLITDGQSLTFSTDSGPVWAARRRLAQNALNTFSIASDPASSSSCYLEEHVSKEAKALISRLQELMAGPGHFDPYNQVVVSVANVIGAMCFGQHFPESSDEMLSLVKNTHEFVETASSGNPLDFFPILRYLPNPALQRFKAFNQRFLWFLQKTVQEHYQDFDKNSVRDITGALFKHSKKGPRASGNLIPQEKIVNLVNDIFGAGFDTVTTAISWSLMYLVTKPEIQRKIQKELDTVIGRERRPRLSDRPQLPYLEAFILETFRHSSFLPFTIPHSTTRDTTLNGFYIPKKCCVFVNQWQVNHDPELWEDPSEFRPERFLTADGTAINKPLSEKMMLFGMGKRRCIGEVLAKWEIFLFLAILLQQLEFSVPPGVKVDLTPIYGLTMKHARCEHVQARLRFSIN
# [7] = molecular target: T2, Short transient receptor potential channel 4 (Mus musculus, UniProt Q9QUQ5); experiment: calcium entry via TRPC4 opening agents – cell-based, HEK293 TRPC4/mu-opioid, Fluo-4 calcium, dose response (AID 434937); type: functional
# T2 sequence (Q9QUQ5 whole entry): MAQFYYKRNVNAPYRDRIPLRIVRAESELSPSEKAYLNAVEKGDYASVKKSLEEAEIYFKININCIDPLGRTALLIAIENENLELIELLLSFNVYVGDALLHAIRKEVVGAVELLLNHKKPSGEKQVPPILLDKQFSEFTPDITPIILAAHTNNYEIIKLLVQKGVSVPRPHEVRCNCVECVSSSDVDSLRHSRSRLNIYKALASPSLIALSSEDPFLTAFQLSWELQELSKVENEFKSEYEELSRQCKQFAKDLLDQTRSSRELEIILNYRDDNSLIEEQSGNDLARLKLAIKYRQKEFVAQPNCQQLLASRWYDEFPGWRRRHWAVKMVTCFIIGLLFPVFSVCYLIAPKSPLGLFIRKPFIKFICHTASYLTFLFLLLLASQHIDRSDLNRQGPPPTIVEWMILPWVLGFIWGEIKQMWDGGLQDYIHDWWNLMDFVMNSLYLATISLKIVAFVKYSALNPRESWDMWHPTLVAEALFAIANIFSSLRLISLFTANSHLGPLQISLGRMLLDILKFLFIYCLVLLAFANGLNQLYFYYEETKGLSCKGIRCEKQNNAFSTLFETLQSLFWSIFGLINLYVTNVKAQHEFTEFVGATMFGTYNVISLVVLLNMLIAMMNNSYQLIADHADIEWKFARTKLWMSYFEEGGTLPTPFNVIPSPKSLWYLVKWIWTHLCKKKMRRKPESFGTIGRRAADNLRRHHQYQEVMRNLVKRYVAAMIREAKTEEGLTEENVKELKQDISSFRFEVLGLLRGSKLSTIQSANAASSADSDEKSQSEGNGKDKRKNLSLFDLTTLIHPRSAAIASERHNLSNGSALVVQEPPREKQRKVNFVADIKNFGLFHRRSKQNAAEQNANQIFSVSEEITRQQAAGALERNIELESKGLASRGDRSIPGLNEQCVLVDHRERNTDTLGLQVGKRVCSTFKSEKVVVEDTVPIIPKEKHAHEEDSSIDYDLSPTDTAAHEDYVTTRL
# [8] = luciferase reporter signal suppression in cells – H4 neuroglioma cells, luminescence, dose response (AID 1990); type: functional, cell-based
# [9] = Luminescence Cell-Based Dose Response HTS to Identify Inhibitors of 5'UTR Stem-Loop Driven Prion Protein mRNA Translation in H4 Neuroglioblastoma Cells. [Related pubchem assays: 1827 (Project Summary), 1813 (Primary HTS)]; type: functional
# [10] = alpha-synuclein stem-loop luciferase translation blockers – H4 neuroglioma cells, luminescence, confirmation (AID 1988); type: functional, cell-based
# [11] = molecular target: T3, Microphthalmia-associated transcription factor (Homo sapiens, UniProt O75030); experiment: reducers of TRPM1 reporter luminescence, concentration series – cell-based, SK-MEL-5, cherry-picked, set 3, MITF inhibitor project, dose response (AID 493073); type: functional;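 further: SK-MEL-5 melanoma cells with luciferase driven by the MITF target TRPM1 promoter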
# T3 sequence (O75030 whole entry): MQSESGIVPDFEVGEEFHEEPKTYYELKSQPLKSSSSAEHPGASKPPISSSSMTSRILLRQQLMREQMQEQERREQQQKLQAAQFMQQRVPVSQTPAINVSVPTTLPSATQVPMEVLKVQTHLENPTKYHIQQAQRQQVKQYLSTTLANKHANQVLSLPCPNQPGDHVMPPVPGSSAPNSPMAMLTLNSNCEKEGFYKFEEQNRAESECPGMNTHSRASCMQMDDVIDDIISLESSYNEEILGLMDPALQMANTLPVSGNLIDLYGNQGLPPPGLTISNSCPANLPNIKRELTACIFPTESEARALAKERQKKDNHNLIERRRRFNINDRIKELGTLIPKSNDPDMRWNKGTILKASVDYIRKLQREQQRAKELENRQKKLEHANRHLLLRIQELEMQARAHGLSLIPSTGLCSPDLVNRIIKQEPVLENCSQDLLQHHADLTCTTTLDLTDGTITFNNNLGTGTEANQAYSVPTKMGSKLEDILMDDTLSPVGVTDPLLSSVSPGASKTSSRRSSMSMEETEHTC
# [12] = molecular target: Cytochrome P450 3A4 (Homo sapiens, UniProt P08684);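 further: CYP3A4 tested as one member of a cytochrome P450 panel screen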
# Sequence of Cytochrome P450 3A4 (P08684 whole entry): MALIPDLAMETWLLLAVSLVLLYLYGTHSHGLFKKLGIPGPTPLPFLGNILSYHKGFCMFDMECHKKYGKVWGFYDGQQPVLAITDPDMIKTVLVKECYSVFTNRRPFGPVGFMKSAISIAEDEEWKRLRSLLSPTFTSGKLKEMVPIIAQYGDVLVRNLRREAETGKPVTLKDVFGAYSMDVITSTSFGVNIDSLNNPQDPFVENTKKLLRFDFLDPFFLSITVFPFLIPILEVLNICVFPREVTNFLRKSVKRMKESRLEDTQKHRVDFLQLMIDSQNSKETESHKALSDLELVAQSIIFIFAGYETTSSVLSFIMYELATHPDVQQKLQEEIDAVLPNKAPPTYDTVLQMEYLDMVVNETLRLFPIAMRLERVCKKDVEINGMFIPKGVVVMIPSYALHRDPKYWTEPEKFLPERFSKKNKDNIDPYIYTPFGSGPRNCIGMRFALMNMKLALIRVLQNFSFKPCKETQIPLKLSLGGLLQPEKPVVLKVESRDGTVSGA
# [13] = test system: BJ; experiment: BJ-TERT fibroblast viability loss – cell-based, RAS-independent, luminescence, dose response (AID 1933); type: functional; settings: Homo sapiens
# [14] = test system: BJ; experiment: cells; type: functional, cell-based; settings: Homo sapiens
# [15] = test system: BJ; experiment: BJ-TERT-LT-ST fibroblast viability loss – cell-based, RAS-independent, luminescence, dose response (AID 1935); type: functional; settings: Homo sapiens;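 further: BJ fibroblasts immortalized with TERT plus LT and ST oncogenes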
# [16] = DRD fibroblast viability loss – cell-based, non-viral oncogenic, luminescence, dose response (AID 1934); type: functional; settings: Homo sapiens
# [17] = NIH-3T3 fibroblast cytotoxicity, dose response, cytotoxicity control, cell-based, fluorescence, Alamar Blue, secondary assay (AID 2327); type: functional;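 further: NIH-3T3 mouse fibroblasts cultured with fluconazole at 8 µg/mL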
# [18] = fluconazole-exposed Candida albicans growth modulators – fluorescence, retest, confirmation (AID 2467); type: functional, cell-based
# [19] = viability of PTEN-deleted HCT116 cells – cell-based, HCT116 PTEN knockout, dose response (AID 1047); type: functional;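 further: HCT116 colon tumor cells with PTEN knocked out; cells exposed to compound for 60 hours before readout; potency for loss of cell viability measured by luminescence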
# [20] = viability of HCT116 lacking mutant beta-catenin – cell-based, human colon tumor, dose response (AID 1045); type: functional;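 further: HCT116 colon tumor cells with beta catenin knocked out; cells exposed to compound for 60 hours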
# [21] = test system: INS1; experiment: INS-1E survival protection against cytokine death – cell-based, luminescence, retest, dose response (AID 449756); type: functional; settings: Rattus norvegicus;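 further: cell death triggered by IL-1 beta plus TNF-alpha plus IFN-gamma mixture; protective hits raise ATP signal compared with cytokine alone wells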
# [22] = intracellular Trypanosoma cruzi inhibitors in host cells – cell-based, plate reader, cherry-pick samples, set 3, dose response (AID 651818); type: functional;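 further: compounds incubated with infected cells for about four days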
# [23] = molecular target: Paired box protein Pax-8 (Homo sapiens, UniProt Q06710); experiment: PAX8 transcriptional activity inhibition in RMG-I – RMG-I cells, luciferase, cherry-pick, dose response (AID 687027); type: functional, cell-based;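 further: luciferase reporter driven by Pax8 target thyroperoxidase promoter measured by SteadyGlo luminescence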
# Sequence of Paired box protein Pax-8 (Q06710 whole entry): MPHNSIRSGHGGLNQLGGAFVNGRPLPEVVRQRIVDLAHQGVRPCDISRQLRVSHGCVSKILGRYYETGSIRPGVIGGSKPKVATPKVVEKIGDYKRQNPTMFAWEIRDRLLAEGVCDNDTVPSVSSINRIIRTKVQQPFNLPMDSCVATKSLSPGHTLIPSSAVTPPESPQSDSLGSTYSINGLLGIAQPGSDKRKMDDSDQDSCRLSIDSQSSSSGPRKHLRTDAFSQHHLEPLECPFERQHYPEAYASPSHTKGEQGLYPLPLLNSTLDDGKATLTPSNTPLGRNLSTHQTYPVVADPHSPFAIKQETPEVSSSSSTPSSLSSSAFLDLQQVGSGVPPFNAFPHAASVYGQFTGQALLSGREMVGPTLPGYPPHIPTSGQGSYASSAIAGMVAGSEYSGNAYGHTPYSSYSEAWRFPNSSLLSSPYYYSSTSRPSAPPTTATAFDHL
# [24] = P. falciparum Dd2 growth inhibitors, dose response, SYBR Green, cherry-picked samples (AID 1159567); type: functional, cell-based
# [25] = molecular target: T4, Rac GTPase-activating protein 1 (Homo sapiens, UniProt Q9H0H5); experiment: blockers of MgcRacGAP-driven Rac1 GTP hydrolysis – biochemical, ADP Hunter fluorescence, primary and confirmatory, confirmation (AID 624330); type: functional
# T4 sequence (Q9H0H5 whole entry): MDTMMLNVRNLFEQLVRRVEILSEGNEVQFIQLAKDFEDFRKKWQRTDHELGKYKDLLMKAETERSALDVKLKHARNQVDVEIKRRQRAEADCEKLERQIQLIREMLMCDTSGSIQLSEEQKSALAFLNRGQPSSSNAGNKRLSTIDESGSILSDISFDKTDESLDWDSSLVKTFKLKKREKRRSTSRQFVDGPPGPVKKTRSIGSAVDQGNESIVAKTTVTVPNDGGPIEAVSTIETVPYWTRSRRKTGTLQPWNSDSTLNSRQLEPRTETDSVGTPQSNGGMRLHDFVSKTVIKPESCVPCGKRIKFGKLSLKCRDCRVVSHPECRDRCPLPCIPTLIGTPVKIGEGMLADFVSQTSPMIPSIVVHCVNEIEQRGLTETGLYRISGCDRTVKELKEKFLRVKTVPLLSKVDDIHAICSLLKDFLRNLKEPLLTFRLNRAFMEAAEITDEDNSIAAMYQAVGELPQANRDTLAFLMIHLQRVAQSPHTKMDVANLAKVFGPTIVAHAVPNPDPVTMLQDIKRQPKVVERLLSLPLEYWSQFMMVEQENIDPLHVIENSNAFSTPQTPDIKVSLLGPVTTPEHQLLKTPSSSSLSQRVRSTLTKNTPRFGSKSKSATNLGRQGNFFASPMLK
# Sequence of Luciferin 4-monooxygenase (P08659 whole entry): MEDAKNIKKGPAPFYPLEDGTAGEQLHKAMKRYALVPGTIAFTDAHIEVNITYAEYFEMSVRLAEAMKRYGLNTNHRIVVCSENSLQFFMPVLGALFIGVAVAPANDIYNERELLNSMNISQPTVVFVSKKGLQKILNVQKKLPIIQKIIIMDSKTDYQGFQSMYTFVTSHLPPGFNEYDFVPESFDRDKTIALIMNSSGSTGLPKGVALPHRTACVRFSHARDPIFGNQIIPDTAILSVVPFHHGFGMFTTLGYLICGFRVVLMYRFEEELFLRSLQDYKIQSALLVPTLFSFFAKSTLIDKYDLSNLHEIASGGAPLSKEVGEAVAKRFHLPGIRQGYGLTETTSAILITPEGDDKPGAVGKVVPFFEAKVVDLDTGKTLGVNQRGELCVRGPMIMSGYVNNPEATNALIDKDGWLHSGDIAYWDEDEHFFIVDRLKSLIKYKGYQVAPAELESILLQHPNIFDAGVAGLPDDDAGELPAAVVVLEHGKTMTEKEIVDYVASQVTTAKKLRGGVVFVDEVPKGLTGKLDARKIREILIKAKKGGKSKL
# Sequence of Glyceraldehyde-3-phosphate dehydrogenase (P04406 whole entry): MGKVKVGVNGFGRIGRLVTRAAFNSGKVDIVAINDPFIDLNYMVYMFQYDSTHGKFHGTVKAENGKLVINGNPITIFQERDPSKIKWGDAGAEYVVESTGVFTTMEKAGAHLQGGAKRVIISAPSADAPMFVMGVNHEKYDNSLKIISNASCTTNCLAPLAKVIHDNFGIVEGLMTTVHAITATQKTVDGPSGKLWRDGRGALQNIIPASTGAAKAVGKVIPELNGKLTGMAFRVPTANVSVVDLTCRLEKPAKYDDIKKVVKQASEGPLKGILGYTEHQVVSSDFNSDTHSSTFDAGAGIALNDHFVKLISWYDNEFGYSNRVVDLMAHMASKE
smiles,measurement,setting,value
COc1cccc(N2C(=O)C(Cl)=C(N3CCN(Cc4ccc5c(c4)OCO5)CC3)C2=O)c1,IC50,[1],> 50 µM (inconclusive)
O=C(CN(CCN1CCOCC1)C(=O)Cn1nnc(-c2ccc(F)cc2)n1)NC1CCCCC1,EC50,[2],> 112 µM (not active)
same,EC50,[3],> 112 µM (not active)
CN1CCc2c(sc3nc(SCC(=O)N4CCCCC4)n(-c4ccccc4)c(=O)c23)C1,EC50,[2],> 112 µM (not active)
same,EC50,[3],12.9 µM (active)
CN(C)c1ccc(NC(=O)C(=O)C2C(=O)Nc3ccccc32)cc1 (stereo not drawn),IC50,[4],25.9 µM (active)
COc1cc(OC)c(C2CC(=O)N3CN(c4ccc(C)cc4)CSC3=C2C#N)cc1OC (stereo not drawn),IC50,[4],43.4 µM (active)
COc1ccccc1CN1CC[C@@]2(CCCN(C(=O)c3c(C)noc3C)C2)C1,AC50,[5],inconclusive
Cc1csc(NC(=O)CCNS(=O)(=O)c2ccc3c(c2)c(=O)n(C)c(=O)n3C)n1,AC50,[6],0.00631 µM (inconclusive)
same,AC50,[5],inconclusive
Cc1ccc(NC(=O)NCC(c2ccccc2)N(C)C)cc1 (stereo not drawn),EC50,[7],0.004 µM (active)
C=CCSc1nc(C)cc(/C=C\c2ccccc2)c1C#N,AC50,[5],inconclusive
COc1ccc(OCC(=O)Nc2ccc3c(c2)nc(CN2CCCC2)n3C)cc1,EC50,[2],> 112 µM (not active)
same,EC50,[3],> 112 µM (not active)
O=C(Nc1ccc(S(=O)(=O)N2CCCCCC2)cc1)c1n[nH]cc1[N+](=O)[O-],EC50,[8],6.09 µM (active)
same,EC50,[9],53.1 µM (active)
same,EC50,[10],8.3 µM (active)
same,AC50,[11],4.02 µM (active)
O=C(CCCCCn1nnc2ccccc2c1=O)N[C@H](C(=O)O)c1ccccc1,EC50,[2],> 112 µM (not active)
same,EC50,[3],> 112 µM (not active)
COc1cc(/C=C/C(=O)N2CCN(CC(O)COc3ccccc3)CC2)cc(OC)c1OC.Cl (stereo not drawn),AC50,[12],10 µM (inconclusive)
same,AC50,[5],inconclusive
O=C(NCCc1ccccn1)c1ccc(COc2ccccc2)o1,EC50,[7],4.73 µM (active)
O=C(COC(=O)CCC(=O)c1ccc(F)cc1)Nc1cccc(S(=O)(=O)N2CCCC2)c1,EC50,[2],> 112 µM (not active)
same,EC50,[3],15.5 µM (active)
COc1ccc(C(=O)c2ccc(N3CCOCC3)c([N+](=O)[O-])c2)cc1,EC50,[13],> 150 µM (not active)
same,EC50,[14],> 150 µM (not active)
same,EC50,[15],> 150 µM (not active)
same,EC50,[16],> 150 µM (not active)
COc1cc(C(=O)Nc2nc(C)c(Cc3ccc4c(c3)OCO4)s2)cc(OC)c1OC,EC50,[13],2.49 µM (active)
same,EC50,[14],133 µM (active)
same,EC50,[15],1.68 µM (active)
same,EC50,[16],2.04 µM (active)
COc1cccc(C(=O)Oc2c(CN3CCOCC3)cc(Cl)c3cccnc23)c1,EC50,[17],> 75 µM (inactive)
same,EC50,[18],1.83 µM (active)
same,EC50,[19],3.38 µM (active)
same,EC50,[20],2.48 µM (active)
same,AC50,[11],9.9 µM (active)
same,AC50,[21],4.85 µM (active)
C=CCn1c(CCNC(=O)C(C)(C)C)nc2ccccc21,EC50,[7],3.76 µM (active)
COc1ccc(NC(=O)Nc2ccc3c(c2)CC(=O)N([C@H](C)CO)C[C@@H](C)[C@@H](CN(C)Cc2ccc(C(F)(F)F)cc2)O3)cc1,AC50,[22],3.52 µM (active)
C[C@H]1CN([C@@H](C)CO)C(=O)Cc2cc(NC(=O)Nc3ccc(C(F)(F)F)cc3)ccc2O[C@H]1CN(C)CC1CCCCC1,AC50,[22],3.6 µM (active)
C[C@@H]1CN([C@H](C)CO)C(=O)Cc2cc(NS(=O)(=O)c3ccccc3)ccc2O[C@@H]1CN(C)S(=O)(=O)c1ccc(Cl)cc1,AC50,[22],2.08 µM (active)
same,AC50,[23],35.5 µM (active)
O=C(Nc1cccc(F)c1)N[C@@H]1CC[C@@H](CCNS(=O)(=O)c2cccc(Cl)c2)O[C@@H]1CO,AC50,[23],42.7 µM (active)
same,AC50,[24],18.6 µM (active)
COc1cc(/C=N/N=C(\N)c2nonc2N)ccc1O,IC50,[4],12.2 µM (active)
same,EC50,[2],52.8 µM (active)
same,EC50,[3],7.47 µM (active)
same,IC50,[25],18.9 µM (active)
COc1ccc2c3c([nH]c2c1)[C@H](CO)N(Cc1cc(F)ccc1F)CC31CCN(C(=O)C2CCC2)CC1,AC50,[24],3.36 µM (active)
C[C@H](CO)N1C[C@H](C)[C@@H](CN(C)C(=O)Nc2ccc(F)cc2)Oc2ccc(NC(=O)Nc3ccc(C(F)(F)F)cc3)cc2CC1=O,AC50,[24],3.77 µM (active)
CC(=O)N1CC2(C1)[C@@H](c1ccc(-c3cccc(F)c3)cc1)[C@@H](CO)N2CC1CCCC1,AC50,[24],6.15 µM (active)
